In ChEMBL document CHEMBL2010677, “Anti-inflammatory and PPAR transactivational effects of secondary metabolites from the roots of Asarum sieboldii” (Bioorg Med Chem Lett, 2012):

Key:
[1] = target: T1, Peroxisome proliferator-activated receptor delta (Homo sapiens, UniProt Q03181); test: Transactivation of GAL4-fused PPARbeta LBD expressed in HepG2 cells after 20 hrs by luminescence assay; format: cell-based
T1 sequence (Q03181 whole entry): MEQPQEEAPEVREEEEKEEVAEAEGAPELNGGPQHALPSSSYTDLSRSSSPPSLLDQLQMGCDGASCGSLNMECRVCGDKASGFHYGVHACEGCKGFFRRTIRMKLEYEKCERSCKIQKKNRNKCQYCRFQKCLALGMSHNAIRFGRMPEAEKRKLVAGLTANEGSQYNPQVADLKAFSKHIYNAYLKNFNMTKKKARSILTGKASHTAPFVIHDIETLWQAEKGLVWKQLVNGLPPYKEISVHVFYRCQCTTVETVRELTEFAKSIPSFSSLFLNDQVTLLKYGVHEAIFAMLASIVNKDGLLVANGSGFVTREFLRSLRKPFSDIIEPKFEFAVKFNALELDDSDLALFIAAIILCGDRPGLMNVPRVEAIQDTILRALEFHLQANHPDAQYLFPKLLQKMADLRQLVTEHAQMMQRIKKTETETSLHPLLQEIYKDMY

HepG2 [2] = test: Cytotoxicity against human HepG2 cells by MTT assay; format: cell-based
[3] = target: T2, Peroxisome proliferator-activated receptor gamma (Homo sapiens, UniProt P37231); test: Transactivation of GAL4-fused PPARgamma LBD expressed in HepG2 cells after 20 hrs by luminescence assay; format: cell-based
T2 sequence (P37231 whole entry): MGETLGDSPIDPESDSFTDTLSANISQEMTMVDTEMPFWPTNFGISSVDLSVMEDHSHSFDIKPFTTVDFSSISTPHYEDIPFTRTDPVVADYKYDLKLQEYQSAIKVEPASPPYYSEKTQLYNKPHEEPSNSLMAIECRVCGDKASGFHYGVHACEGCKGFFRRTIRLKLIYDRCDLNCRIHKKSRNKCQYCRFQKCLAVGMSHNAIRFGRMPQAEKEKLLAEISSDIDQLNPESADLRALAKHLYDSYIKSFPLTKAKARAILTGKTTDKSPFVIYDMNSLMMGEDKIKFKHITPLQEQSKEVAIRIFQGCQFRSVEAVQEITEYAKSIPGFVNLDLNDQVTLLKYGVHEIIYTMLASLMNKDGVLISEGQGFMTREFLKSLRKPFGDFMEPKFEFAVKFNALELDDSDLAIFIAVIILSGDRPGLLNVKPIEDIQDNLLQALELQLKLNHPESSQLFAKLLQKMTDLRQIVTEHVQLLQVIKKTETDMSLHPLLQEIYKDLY

[4] = (§1) Transactivation of PPAR expressed in HepG2 cells after 20 hrs by luminescence assay; format: cell-based; details: HepG2, 20 h
[5] = target: T3, Peroxisome proliferator-activated receptor alpha (Homo sapiens, UniProt Q07869); test: (§2) Transactivation of GAL4-fused PPARalpha LBD expressed in HepG2 cells after 20 hrs by luminescence assay; format: cell-based
T3 sequence (Q07869 whole entry): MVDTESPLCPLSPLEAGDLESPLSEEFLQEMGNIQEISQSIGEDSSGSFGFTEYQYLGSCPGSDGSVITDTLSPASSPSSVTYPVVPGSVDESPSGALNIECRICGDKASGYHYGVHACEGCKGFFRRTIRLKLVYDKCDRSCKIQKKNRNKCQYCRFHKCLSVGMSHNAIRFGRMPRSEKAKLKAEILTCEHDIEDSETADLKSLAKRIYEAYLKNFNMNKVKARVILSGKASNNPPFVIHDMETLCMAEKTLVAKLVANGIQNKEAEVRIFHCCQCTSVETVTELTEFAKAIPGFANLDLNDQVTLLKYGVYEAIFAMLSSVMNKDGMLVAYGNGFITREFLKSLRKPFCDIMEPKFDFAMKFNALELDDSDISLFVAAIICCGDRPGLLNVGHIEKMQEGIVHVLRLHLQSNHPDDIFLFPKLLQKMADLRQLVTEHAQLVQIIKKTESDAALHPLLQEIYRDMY

[6] = target: T4, Peroxisome proliferator-activated receptor alpha (Homo sapiens) (UniProt Q07869); test: as §2; format: cell-based
T4 sequence (whole entry): T3 sequence (Q07869 whole entry)

HepG2 [7] = test: Inhibition of NFkappaB-mediated iNOS mRNA expression in human TNFalpha-stimulated human HepG2 cells pretreated for 1 hr before TNFalpha challenge measured after 6 hrs by RT-PCR analysis; format: cell-based
[8] = Inhibition of TNFalpha-induced NFkappaB transcriptional activity in human HepG2 cells pretreated for 1 hr before TNFalpha challenge by luciferase reporter gene analysis
HepG2 [9] = test: Inhibition of NFkappaB-mediated COX2 mRNA expression in human TNFalpha-stimulated human HepG2 cells by RT-PCR analysis; format: cell-based
HepG2 [10] = test: as §1; format: cell-based

Structure (SMILES)	EC50 [1]	Activity (HepG2 [2])	EC50 [3]	EC50 [4]	EC50 [5]	Activity [6]	inhibition (HepG2 [7])	IC50 [8]	inhibition (HepG2 [9])	Activity (HepG2 [10])
C/C=C\CC/C=C/C=C/C(=O)NCC(C)C	4.9 µM	Non-toxic	3.6 µM	2 µM	4 µM	Dose-dependent effect				
COc1cc([C@@H]2OC[C@@H]3[C@H]2CO[C@H]3c2ccc3c(c2)OCO3)ccc1O [PIPERITOL]	33.9 µM	Non-toxic	18.9 µM	20.9 µM	53.2 µM					
c1cc2c(cc1[C@H]1OC[C@H]3[C@@H]1CO[C@@H]3c1ccc3c(c1)OCO3)OCO2 [SESAMIN]		Non-toxic		> 60 µM			Dose-dependent effect	9.4 µM	Dose-dependent effect	
CC(C)(Oc1ccc(C2CC2(Cl)Cl)cc1)C(=O)O (stereo not drawn) [CIPROFIBRATE]					0.9 µM					
C=CCc1ccc(OC)c(OC)c1 [METHYLEUGENOL]	50.6 µM	Non-toxic	40 µM	28 µM	46.5 µM					
CC=C/C=C\CC/C=C/C=C/C(=O)NCC(C)C	51.1 µM	Non-toxic	52.3 µM	58.6 µM	46.1 µM		Dose-dependent effect	6.4 µM	Dose-dependent effect	
COc1cc([C@H]2OC[C@H]3[C@@H]2CO[C@H]3c2ccc(O)c(OC)c2)ccc1O [PINORESINOL]	49.5 µM	Non-toxic	58.6 µM	10.3 µM	> 60 µM					Dose-dependent effect
CC(C)(O)C1=C[C@@H](O)[C@@](C)(O)CC1	48.5 µM	Non-toxic	21.7 µM	4.3 µM	19.5 µM	Dose-dependent effect				
COc1cc([C@H]2OC[C@@H]3[C@H]2CO[C@H]3c2ccc3c(c2)OCO3)ccc1O [PLUVIATILOL]	53.1 µM	Non-toxic	48.7 µM	1.7 µM	> 60 µM					
CC1=CC(=O)C2C(C1=O)C2(C)C (racemic)		Non-toxic		> 60 µM						
CCCc1c(OCCCOc2ccc(OCC(=O)O)cc2)ccc(C(C)=O)c1O	0.64 µM									
COc1ccc([C@@H](O)[C@H](O)CO)cc1OC	22.6 µM	Non-toxic	19.3 µM	20.3 µM	15.7 µM	Dose-dependent effect				
O=C(O)c1cc(/N=N/c2ccc(S(=O)(=O)Nc3ccccn3)cc2)ccc1O [SULFASALAZINE]								0.9 µM		
CC(C)(Oc1ccc(CCNC(=O)c2ccc(Cl)cc2)cc1)C(=O)O [BEZAFIBRATE]				1.05 µM						
COc1cc([C@H]2OC[C@H]3[C@@H]2CO[C@H]3c2ccc3c(c2)OCO3)cc(OC)c1O	47.6 µM	Non-toxic	22.6 µM	6.2 µM	> 60 µM					
c1cc2c(cc1[C@H]1OC[C@H]3[C@@H]1CO[C@H]3c1ccc3c(c1)OCO3)OCO2 [ASARININ]		Non-toxic		> 60 µM			Dose-dependent effect	7.1 µM	Dose-dependent effect	
